Experimental data reported in patent US12077503B2, “Substituted cyclic amides and their use as herbicides” (FMC CORPORATION, priority 2015, dated 2024).

Legend:
Format in all cases: in vivo
Kochia (Kochia scoparia) [1] = test: Test A preemergence; conditions: Bassia scoparia, pre-emergence, 240 h, Preemergence
How it was run: (§1)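 Preemergence soil spray on seeded pots or post-emergence spray on 1–2 leaf plants, in loam–sand blend. Greenhouse ~10 d. Visual rating 0–100 against untreated plants.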

[2] = system: barnyardgrass (Echinochloa crus-galli); test: Test A preemergence; conditions: Echinochloa crus-galli, pre-emergence, 240 h, Preemergence
How it was run: as §1

[3] = system: giant foxtail (Setaria faberii); test: Test A preemergence; conditions: Setaria faberi, pre-emergence, 240 h, Preemergence
How it was run: as §1

[4] = system: pigweed (Amaranthus retroflexus); test: Test A preemergence; conditions: Amaranthus retroflexus, pre-emergence, 240 h, Preemergence
[5] = system: ragweed (common ragweed, Ambrosia elatior); test: Test A preemergence; conditions: Ambrosia artemisiifolia, pre-emergence, 240 h, Preemergence
How it was run: as §1

[6] = system: ryegrass, Italian (Italian ryegrass, Lolium multiflorum); test: Test A preemergence; conditions: Lolium multiflorum, pre-emergence, 240 h, Preemergence
How it was run: as §1

[7] = system: Galium (catchweed bedstraw, Galium aparine); test: Test A postemergence; conditions: Galium, post-emergence, 240 h, Postemergence, read-out: Galium plant response rating (0 to 100 scale)
How it was run: as §1

Kochia (Kochia scoparia) [8] = test: Test A postemergence; conditions: Bassia scoparia, post-emergence, 240 h, Postemergence, read-out: Kochia plant response rating (0 to 100 scale)
How it was run: as §1

[9] = system: barnyardgrass (Echinochloa crus-galli); test: Test A postemergence; conditions: Echinochloa crus-galli, post-emergence, 240 h, Postemergence
How it was run: as §1

[10] = system: blackgrass (Alopecurus myosuroides); test: Test A postemergence; conditions: Alopecurus myosuroides, post-emergence, 240 h, Postemergence, read-out: Blackgrass plant response rating (0 to 100 scale)
How it was run: as §1

corn (Zea mays) = test: Test A postemergence; conditions: Zea mays, post-emergence, 240 h, Postemergence, read-out: Corn plant response rating (0 to 100 scale)
How it was run: as §1

[11] = system: giant foxtail (Setaria faberii); test: Test A postemergence; conditions: Setaria faberi, post-emergence, 240 h, Postemergence, read-out: Foxtail, Giant plant response rating (0 to 100 scale)
How it was run: as §1

[12] = system: pigweed (Amaranthus retroflexus); test: Test A postemergence; conditions: Amaranthus retroflexus, post-emergence, 240 h, Postemergence, read-out: Pigweed plant response rating (0 to 100 scale)
How it was run: as §1

[13] = system: ragweed (common ragweed, Ambrosia elatior); test: Test A postemergence; conditions: Ambrosia artemisiifolia, post-emergence, 240 h, Postemergence, read-out: Ragweed plant response rating (0 to 100 scale)
How it was run: as §1

[14] = system: ryegrass, Italian (Italian ryegrass, Lolium multiflorum); test: Test A postemergence; conditions: Lolium multiflorum, post-emergence, 240 h, Postemergence, read-out: Ryegrass, Italian plant response rating (0 to 100 scale)
How it was run: as §1

[15] = system: wheat (Triticum aestivum); test: Test A postemergence; conditions: Triticum aestivum, post-emergence, 240 h, Postemergence, read-out: Wheat plant response rating (0 to 100 scale)
How it was run: as §1

[16] = system: barnyardgrass (Echinochloa crus-galli); test: Test B flooded paddy test; conditions: Echinochloa crus-galli, 360 h, Flood, 250 g ai/ha; visually evaluated after 13 to 15 d; read-out: Plant response rating, Barnyardgrass (0 to 100 scale where 0 is no effect and 100 is complete control)
How it was run: (§2)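 Percent control, visually estimated after 13–15 d in the greenhouse on a 0–100 basis, compares treated pots with untreated ones; compound was put into paddy water 3 cm above the soil when plants had two leaves.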

[17] = system: ducksalad (Heteranthera limosa); test: Test B flooded paddy test; conditions: Heteranthera limosa, 360 h, Flood, 250 g ai/ha; visually evaluated after 13 to 15 d; read-out: Plant response rating, Ducksalad (0 to 100 scale where 0 is no effect and 100 is complete control)
How it was run: as §2

rice (Oryra sativa) = test: Test B flooded paddy test; conditions: Oryza sativa, 360 h, Flood, 250 g ai/ha; visually evaluated after 13 to 15 d; read-out: Plant response rating, Rice (0 to 100 scale where 0 is no effect and 100 is complete control)
How it was run: as §2

[18] = system: sedge, umbrella (small-flower umbrella sedge, Cyperus difformis); test: Test B flooded paddy test; conditions: Cyperus difformis, 360 h, Flood, 250 g ai/ha; visually evaluated after 13 to 15 d; read-out: Plant response rating, Sedge, Umbrella (0 to 100 scale where 0 is no effect and 100 is complete control)
How it was run: as §2

[19] = 125 g ai/ha, visual rating about 10 d after treatment
[20] = 31 g ai/ha, 0 is no effect, 100 is complete control

Cc1cccc([C@H]2CN(C)C(=O)[C@@H]2C(=O)Nc2cccnc2F)c1 [Compound 1345]
pest or weed control at 31 g/ha (Kochia (Kochia scoparia) [1]; 31 g ai/ha, 0 to 100 scale where 0 is no effect and 100 is complete control, read-out: Kochia plant response rating): 0%
pest or weed control at 125 g/ha (Kochia (Kochia scoparia) [1]; 125 g ai/ha, 0 to 100 scale (0 no effect, 100 complete control), read-out: Plant response rating, Kochia): 40%
pest or weed control at 31 g/ha ([2]; 31 g ai/ha, 0 to 100 scale where 0 is no effect and 100 is complete control, read-out: Barnyardgrass plant response rating): 80%
pest or weed control at 125 g/ha ([2]; 125 g ai/ha, 0 to 100 scale (0 no effect, 100 complete control), read-out: Plant response rating, Barnyardgrass): 100%
pest or weed control at 31 g/ha ([3]; 31 g ai/ha, 0 to 100 scale where 0 is no effect and 100 is complete control, read-out: Foxtail, Giant plant response rating): 90%
pest or weed control at 125 g/ha ([3]; 125 g ai/ha, 0 to 100 scale (0 no effect, 100 complete control), read-out: Plant response rating, Foxtail, Giant): 100%
pest or weed control at 31 g/ha ([4]; 31 g ai/ha, 0 to 100 scale where 0 is no effect and 100 is complete control, read-out: Pigweed plant response rating): 0%
pest or weed control at 125 g/ha ([4]; 125 g ai/ha, 0 to 100 scale (0 no effect, 100 complete control), read-out: Plant response rating, Pigweed): 0%
pest or weed control at 31 g/ha ([5]; 31 g ai/ha, 0 to 100 scale where 0 is no effect and 100 is complete control, read-out: Ragweed plant response rating): 0%
pest or weed control at 125 g/ha ([5]; 125 g ai/ha, 0 to 100 scale (0 no effect, 100 complete control), read-out: Plant response rating, Ragweed): 60%
pest or weed control at 31 g/ha ([6]; 31 g ai/ha, 0 to 100 scale where 0 is no effect and 100 is complete control, read-out: Ryegrass, Italian plant response rating): 0%
pest or weed control at 125 g/ha ([6]; 125 g ai/ha, 0 to 100 scale (0 no effect, 100 complete control), read-out: Plant response rating, Ryegrass, Italian): 0%
pest or weed control at 125 g/ha [7, 19]: 20%
pest or weed control at 31 g/ha [7, 20]: 0%
pest or weed control at 125 g/ha (Kochia (Kochia scoparia) [8]; [19]): 0%
pest or weed control at 31 g/ha (Kochia (Kochia scoparia) [8]; [20]): 0%
pest or weed control at 125 g/ha ([9]; 125 g ai/ha, visual rating about 10 d after treatment, read-out: Barnyardgrass plant response rating (0 to 100 scale, 0 no effect, 100 complete control)): 90%
pest or weed control at 31 g/ha ([9]; 31 g ai/ha, 0 is no effect, 100 is complete control, read-out: Barnyardgrass plant response rating (0 to 100 scale)): 50%
pest or weed control at 125 g/ha [10, 19]: 20%
pest or weed control at 31 g/ha [10, 20]: 0%
plant injury at 125 g/ha (corn (Zea mays); [19]): 0%
plant injury at 31 g/ha (corn (Zea mays); [20]): 0%
pest or weed control at 125 g/ha [11, 19]: 90%
pest or weed control at 31 g/ha [11, 20]: 20%
pest or weed control at 125 g/ha [12, 19]: 0%
pest or weed control at 31 g/ha [12, 20]: 0%
pest or weed control at 125 g/ha [13, 19]: 0%
pest or weed control at 31 g/ha [13, 20]: 0%
pest or weed control at 125 g/ha [14, 19]: 0%
pest or weed control at 31 g/ha [14, 20]: 0%
plant injury at 125 g/ha [15, 19]: 0%
plant injury at 31 g/ha [15, 20]: 0%
pest or weed control at 250 g/ha [16]: 90%
pest or weed control at 250 g/ha [17]: 95%
pest or weed control at 250 g/ha (rice (Oryra sativa)): 0%
pest or weed control at 250 g/ha [18]: 0%
